The nature of data set [1]: Antibiotic bone assay (LC/MS/MS): tigecycline concentration in incurred human bone. The format is in vivo. As to the method:
Incurred Human Bone: Incurred human bone samples were from Wyeth 3074A1-117-US clinical study. Human bone samples were from the collection of patients who received Tygacil treatment and had bone replacement surgery in 2004. All bone samples were stored at −70° C.
Preparation of incurred human bone sample (incHB) QC sample: Collected large pieces of bone (5-50 g per piece) were immersed in liquid nitrogen in a double thickness 7″×8″ Bitran S series specimen bag and the bone sample was broken into 10 mm or smaller pieces using a steel hammer on a high density polyethylene dissecting borad (11″×13″). The bone pieces were then broken into smaller (approximately 5 mm or less) pieces using a large ceramic mortar and pestle. […]
Calibrators, quality control (QC) samples, and IncRB QC sample (an incurred rat bone sample used as a QC and evaluated multiple times) were prepared as described below. Due to high concentration of oxidant(s) in human bone (incurred and control bone), which can destroy tigecycline before it can be detected after extraction, preparation of calibrators, QCs and incurred samples for human bone require addition of 120 μL of 100 mM L-ascorbic acid solution to the samples (0.1 g) and incubation for 5 minutes at room temperature before adding extraction solvent. […]

A short description of data set [2]: Antibiotic bone assay (LC/MS/MS): tigecycline concentration in incurred rat bone. It counts as in vivo. Particulars: for concentration at 4 h: rat, femoral bone (pooled, ground), 3 mg/kg. As to the method: Incurred rat bone was harvested and prepared from rats administered an antibiotic. Two different groups of incurred rat bone were prepared. Group A (n=12) represented bone from rats administered a single dose of tigecycline and Group B (n=19) represented bone from rats administered multiple doses of tigecycline. Group A rats were intravenously administered a single dose of tigecycline at 3 mg/kg. At 4 hours post-dose, the rats were euthanized and the femoral bones were harvested. Group B rats were intravenously administered 3 mg/kg of ^14C-tigecycline, once daily, for 3 days. At 4 hours post-dose, on day 3, the rats were euthanized and the femoral bones were harvested.
Preparation of incurred rat bone sample: To prepare the bone for extraction, two femoral bones from each rat in each group were collected. Femoral bones were cleaned with a saline solution to remove blood and bone marrow. The bones were air-dried and combined to form two pooled samples of incurred rat bone, Group A and Group B. The femoral rat bone pools were ground for approximately 2 minutes in an industrial blender to produce bone particles <1 mm in diameter. The ground, pooled bone sample for each group was stored at −70° C. for later analysis.
Incurred rat bone (IncRB) QC sample: Approximately 0.1 g of IncRB (Group A), which was stored at −70° and thawed, was weighed and dissolved in 1.0 ml of the extraction solvent to create a mixture of bone and solvent. Then, 50 μl of extraction solvent were added to match the volume of working standard solutions added to RBCtrl calibrators or QC samples. For IncHB QC sample, the procedure is similar to rat bone except for using a human incurred bone sample and adding L-ascorbic acid solution prior to adding extraction solvent.
Approximately 100 mg of prepared IncRB and RBCtrl samples (or human control bone or incurred human bone) were accurately weighed and placed into 17×100 mm polypropylene tubes. One hundred twenty μL of stabilizing agent (100 mM ascorbic acid) was added to human bone samples (For the rat bone assay, it was proven that autosampler stability was improved by adding ascorbic acid). One ml of extraction solvent, 50 μl of each tigecycline working standard solution (or 50 μl of methanol for study samples) and 40 μl of working internal standard solution (5000 ng/ml [t-butyl-d9]-tigecycline in methanol) were added to each tube. All sample tubes were vortexed for about 60 seconds. A tissue homogenizing probe was introduced into the mixture (small particles of prepared bone samples in extraction solvent) to further break up the bone particles. The homogenizing probe was operated at a setting of 4 to 5 (˜10,000 rpm) for about 2 minutes until bone particles in the mixture became a cloudy, white homogenous suspension. The probe was removed from the suspension and cleaned between each sample preparation by immersion in 2 ml of water, operating for 30 to 60 seconds, immersion in 2 ml of methanol, operating for 30 to 60 seconds, and wiping dry. Each sample tube containing bone suspension was centrifuged at 3000 rpm, at room temperature, for about 5 minutes. The supernatant (200 μl) was removed and transferred to a 250-μl conical low volume polypropylene autosampler vial and recentrifuged for another 5 minutes before loading into the HPLC autosampler. A 20 μl aliquot of the supernatant was injected onto the LC/MS/MS for tigecycline determination.
Liquid chromatography separation procedures were carried out on a 50×2.0 mm (I.D., 3 μm) HPLC analytical column with a pre-column in-line solvent filer (2.0 μm PEEK filter) and a LC/MS switching valve. PEEK tubing ( 1/16 in.×0.005 in.) connected the separation module, analytical column, LC/MS switching valve, and mass spectrometer. The separation module included a refrigerated autosampler, an in-line degasser, and a quaternary solvent delivery system. The analytical column temperature was approximately 20° C.; autosampler temperature was maintained at 4° C. […]

SMILES strings stand for the structures. “And” between values parts separate entries of the source, which are not always exact repeats. Identical values can stand only once. Like-named read-outs stand apart in the source and are kept apart here. Marks after values point to notes of the source that are not given here.

Take `CN(C)c1cc(NC(=O)CNC(C)(C)C)c(O)c2c1C[C@H]1C[C@H]3[C@H](N(C)C)C(O)=C(C(N)=O)C(=O)[C@@]3(O)C(O)=C1C2=O` [tigecycline, Tigecycline]: the “Tigecycline concentration in incurred human bone samples” value in data set [1] (24 individual samples, study 3074A1-117-US, stored approximately twenty-one months at −70° C.) is 492 ng/g (2×) and 550 ng/g and 665 ng/g and 431 ng/g and 628 ng/g and 269 ng/g and 290 ng/g and 335 ng/g and 238 ng/g and 240 ng/g and 433 ng/g and 560 ng/g and 362 ng/g and 491 ng/g and 595 ng/g and 258 ng/g and 323 ng/g and 421 ng/g and 411 ng/g and 626 ng/g and 281 ng/g and 439 ng/g and 794 ng/g. The “Inc HB QC sample concentration (incurred human bone)” value in data set [1] (patients who received Tygacil, nominal value = mean of 3-day global inter-day validation (n = 15)) was 257 ng/g and 257^a ng/g. The “Tigecycline concentration in pooled incurred rat bone, Mean ± SD” value in data set [2] (Group A, single i.v. dose 3 mg/kg, Day 1, 4 hour, femoral bone pool of 12 rats, 5 replicates) was 1048 ± 88^b ng/g; in data set [2] (Group B, multiple dose 3 mg/kg i.v. 14C-tigecycline once daily for 3 days, Day 3, 4 hour, pool of 19 rats, 5 replicates), 3192 ng/g and 3192 ± 93^b ng/g. Further, the concentration at 4 h was 1360 ng/g in data set [2] (intravenous, Group A, single dose 3 mg/kg, Day 1, 4 hour, measured concentration divided by 0.771, read-out: Corrected Mean Conc. in rat bone); 4140 ng/g in data set [2] (intravenous, Group B, multiple dose 3 mg/kg 14C-tigecycline, Day 3, 4 hour, measured concentration divided by 0.771, read-out: Corrected Mean Conc. in rat bone); 3400 ng/g in data set [2] (intravenous, IncRB Group B extract used for the bioassay, read-out: Concentration of tigecycline in extracted rat bone sample as determined by LC/MS); 1050 ng/g in data set [2] (iv, Group A, single i.v. dose 3 mg/kg, Day 1, 4 hour, femoral bone pool of 12 rats, 5 replicates, read-out: Tigecycline concentration in pooled incurred rat bone, Mean ± SD). In addition, the “IncRB QC sample concentration (incurred rat bone Group A)” value in data set [2] (single i.v. 3 mg/kg, 4 hours post-dose, nominal value = mean of 3-day global inter-day validation (n = 15)) was 987 ng/g and 987^a ng/g.

The values above are taken from patent US20070259439A1, “Determination of antibiotic concentration in bone” (Wyeth, priority 2006, published 2007).
